In one experiment the test system is MDA-MB-453. The experiment can be described thus: 3D spheroid assay, MDA-MB-453. The format is cell-based. The note with it: Homo sapiens; MDA-MB-453 spheroids, 96 hours; read-out: Cancer cell growth inhibitory activity (IC50). Here is the method: (§1) A 3D spheroid assay was performed as a method for measuring the growth of cancer cells under three-dimensional (3D) culture conditions. Briefly, the 5×10^3 triple-negative breast cancer cells in each well of a 96-well flat plate were three-dimensionally cultured for three days by using MammoCult™ Human Medium Kit (Stemcell Technologies, #05620) and the formed cancer cell spheroids were treated with compound 4 at different concentrations (o, 0.2, 0.5, 1, 2, 5, 10, 20 PM) for 96 hours. The cancer cell growth inhibitory effect of the compound was quantified according to the manufacturer's instructions by using CellTiter-Glo® 3D Cell Viability Assay Kit (Promega, G9681).

For the next experiment, the system named is Hs578T. The experiment can be described thus: 3D spheroid assay, Hs578T. The format is cell-based. The note with it: Homo sapiens, Hs-578T; Hs578T spheroids, 96 hours; read-out: Cancer cell growth inhibitory activity (IC50). Here is the method:
as §1

A further experiment has as its target T1, InsR (Homo sapiens, UniProt P06213).
T1 construct: purchased Promega V9401
The experiment can be described thus: ADP-Glo Kinase Assay, InsR. The note with it: ADP-Glo Kinase Assay Kit. It is filed as biochemical. The method, then:
(§2) Briefly, a kinase test was performed and quantified according to the manufacturer's instructions after treating the adamantane derivative compound of the present invention by using the ADP-Glo™ Kinase Assay Kit (FAK, Promega, V1971; Pyk2, Promega, V4083; InsR, Promega, V9401) containing each kinase of Promega.

Experiment [1] addresses T2, FAK (Homo sapiens, UniProt Q05397). The experiment can be described thus: FAK [pY397] ELISA in BT-20 cells. It is filed as cell-based. Set-up: endogenous in cells; host or cells: MDA-MB-231. To be noted: cell line BT-20; read-out: FAK inhibitory activity (IC50).
Experiment [2] addresses T3, Pyk2 (Homo sapiens, UniProt Q14289).
T3 construct: purchased Promega V4083
The experiment can be described thus: Eurofins kinase screening and profiling, Pyk2. It is filed as biochemical.

Experiment [3] deals with T2, FAK. The experiment can be described thus: FAK [pY397] ELISA in BT-549 cells. It is filed as cell-based. Set-up: endogenous in cells; host or cells: MDA-MB-231. To be noted: cell line BT-549; read-out: FAK inhibitory activity (IC50). A general note: ELISA stands for enzyme-linked immunosorbent assay.
In experiment [4] the target is T2, FAK. The experiment can be described thus: FAK [pY397] ELISA in HCC70 cells. The format is cell-based. Set-up: endogenous in cells; host or cells: MDA-MB-231. The note with it: cell line HCC70; read-out: FAK inhibitory activity (IC50). Here is the method:
(§3) Briefly, an enzyme-linked immunosorbent assay test was performed according to the manufacturer's instructions by using the FAK (Phospho) [pY397] Human ELISA Kit (Thermo Fisher Scientific, KH00441) after dispensing 1×10^6 MDA-MB-231 cells into each well of a 6-well plate, inducing cell stabilization for 24 hours, and treating each compound at different concentrations (o, 1, 5, 10, 50, 100, 500, 1000 nM) for one hour.

Experiment [5] concerns the target T2, FAK. The experiment can be described thus: FAK [pY397] ELISA in Hs578T cells. It is filed as cell-based. Set-up: endogenous in cells; host or cells: MDA-MB-231. The note with it: cell line Hs578T; read-out: FAK inhibitory activity (IC50).
Experiment [6] deals with T2, FAK. The experiment can be described thus: Eurofins kinase screening and profiling, FAK. More on the design: purchased Promega V1971. It is filed as biochemical.
The target of experiment [7] is T3, Pyk2. The experiment can be described thus: ADP-Glo Kinase Assay, Pyk2. It is filed as biochemical. The note with it: ADP-Glo Kinase Assay Kit. The method, then: as §2
On the technique in general: ADP-Glo first removes unused ATP, then detects ADP through luciferase.

In another experiment the target is T4, Met (Homo sapiens, UniProt P08581).
T4 construct: purchased Eurofins (contract screening service)
The experiment can be described thus: Eurofins kinase screening and profiling, Met. The format is biochemical.

The subject of experiment [8] is MDA-MB-231 cells. The experiment can be described thus: Triple-negative breast cancer xenograft mouse model. It is filed as in vivo. To be noted: MDA-MB-231 xenograft nude mice. Here is the method: In one week after acclimatization of five-week-old male nude mice, 1×10^6 MDA-MB-231 cells were subcutaneously inoculated into the mice and observed until a tumor volume reached about 100 mm^3 after 14 days. In order to confirm a tumor growth inhibitory effect of derived candidate materials in the triple-negative breast cancer xenograft mouse model, eight mice for each group were divided into a control group and three experimental groups at different concentrations (4-20 mg/kg, 4-40 mg/kg and 4-80 mg/kg), and each compound was treated once daily. A tumor volume of the mice was measured three times a week on every other day, and the mice were sacrificed on day 29 after cell inoculation. FIG. 4 is a graph showing the tumor volume calculated based on the following formula (Equation 2) with a starting date of drug treatment as day 1. Tumor volume (mm^3)=[(tumor short diameter^2×tumor long diameter)/2] [Equation 2] […] [Equation 3]

The target of experiment [9] is T2, FAK. The experiment can be described thus: FAK [pY397] ELISA in MDA-MB-453 cells. The format is cell-based. Set-up: endogenous in cells; host or cells: MDA-MB-231. To be noted: cell line MDA-MB-453; read-out: FAK inhibitory activity (IC50).
The target of a further experiment is T5, ALK (Homo sapiens, UniProt Q9UM73).
T5 construct: purchased Eurofins (contract screening service)
The experiment can be described thus: Eurofins kinase screening and profiling, ALK. It is filed as biochemical.

Experiment [10] deals with T2, FAK. The experiment can be described thus: ADP-Glo Kinase Assay, FAK. It is filed as biochemical. Set-up: purchased Promega V1971. To be noted: ADP-Glo Kinase Assay Kit. The method, then: as §2
Experiment [11] has as its system MDA-MB-231 cells. The experiment can be described thus: 3D invasion assay. The format is cell-based, human. To be noted: MDA-MB-231 spheroids, 1, 5 μM, 72 hours, FIGS. 2 and 3. Here is the method:
A cell invasion assay was performed and quantified according to a 3D invasion assay. Briefly, MDA-MB-231 cells were cultured in a 96-well round plate (5×10^3/well) for three days to form cancer cell spheroids, then fixed in a mixture of semi-solid Matrigel and type I collagen, and then treated with compound 4 at different concentrations (1, 5 μM). A degree of infiltration was analyzed by using a microscope (see FIG. 2) and an imaging software ImageJ in 72 hours later, and an obtained area value was quantified based on a following equation (Equation 1) and shown in a graph (see FIG. 3). Relative invasion=(total area of compound treated group−spheroid area of compound treated group)/(total area of control−spheroid area of control) [Equation 1]

In experiment [12] the target is T2, FAK. The experiment can be described thus: FAK [pY397] ELISA in MDA-MB-231 cells. The format is cell-based. To be noted: MDA-MB-231, treated for one hour, Table 2; read-out: FAK inhibitory activity (IC50). More on the design: endogenous in cells; host or cells: MDA-MB-231. Here is the method: as §3
[13] abbreviates: at 1 μM, read-out: % inhibition rate (at 1 μM).

SMILES strings stand for the structures. Some results are limits rather than exact numbers.

The text below walks through data of patent publication US12590070B2, “Adamantane derivatives as inhibitors of focal adhesion kinase” (SAMJIN PHARMACEUTICAL CO., LTD., priority 2019, dated 2026).

As a reminder, the IC50 is the point on the concentration scale where inhibition reaches its midpoint. By inhibition is commonly meant the change of the read-out against control, counted positive when it falls.

T2 sequence (Q05397 whole entry): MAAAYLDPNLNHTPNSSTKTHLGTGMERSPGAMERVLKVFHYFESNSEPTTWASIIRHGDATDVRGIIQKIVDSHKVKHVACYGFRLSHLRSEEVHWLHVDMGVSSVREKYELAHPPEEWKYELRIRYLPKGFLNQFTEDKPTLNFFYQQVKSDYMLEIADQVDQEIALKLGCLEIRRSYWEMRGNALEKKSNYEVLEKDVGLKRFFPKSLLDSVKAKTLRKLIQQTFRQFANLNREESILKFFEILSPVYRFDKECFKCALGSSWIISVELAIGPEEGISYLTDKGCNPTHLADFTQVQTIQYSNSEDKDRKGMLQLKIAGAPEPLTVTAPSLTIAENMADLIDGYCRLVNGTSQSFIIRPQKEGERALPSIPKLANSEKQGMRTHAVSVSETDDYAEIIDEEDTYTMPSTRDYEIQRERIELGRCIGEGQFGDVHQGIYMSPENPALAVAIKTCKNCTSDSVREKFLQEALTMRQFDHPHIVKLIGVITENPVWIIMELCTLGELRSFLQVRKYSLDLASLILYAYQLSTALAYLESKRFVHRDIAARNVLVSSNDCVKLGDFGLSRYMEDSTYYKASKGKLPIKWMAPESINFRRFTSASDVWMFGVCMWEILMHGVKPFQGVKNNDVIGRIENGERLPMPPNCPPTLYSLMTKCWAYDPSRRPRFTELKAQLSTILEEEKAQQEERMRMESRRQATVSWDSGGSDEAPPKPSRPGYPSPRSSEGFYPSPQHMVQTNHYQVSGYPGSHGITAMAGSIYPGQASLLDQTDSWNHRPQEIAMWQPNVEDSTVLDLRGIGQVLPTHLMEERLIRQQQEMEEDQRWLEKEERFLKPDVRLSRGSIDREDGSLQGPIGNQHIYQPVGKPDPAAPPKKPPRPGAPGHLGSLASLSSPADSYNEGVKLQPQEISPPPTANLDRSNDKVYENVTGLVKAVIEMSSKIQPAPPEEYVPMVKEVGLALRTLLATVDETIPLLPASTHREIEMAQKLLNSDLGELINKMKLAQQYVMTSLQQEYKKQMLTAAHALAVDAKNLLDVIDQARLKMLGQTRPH
T3 sequence (Q14289 whole entry): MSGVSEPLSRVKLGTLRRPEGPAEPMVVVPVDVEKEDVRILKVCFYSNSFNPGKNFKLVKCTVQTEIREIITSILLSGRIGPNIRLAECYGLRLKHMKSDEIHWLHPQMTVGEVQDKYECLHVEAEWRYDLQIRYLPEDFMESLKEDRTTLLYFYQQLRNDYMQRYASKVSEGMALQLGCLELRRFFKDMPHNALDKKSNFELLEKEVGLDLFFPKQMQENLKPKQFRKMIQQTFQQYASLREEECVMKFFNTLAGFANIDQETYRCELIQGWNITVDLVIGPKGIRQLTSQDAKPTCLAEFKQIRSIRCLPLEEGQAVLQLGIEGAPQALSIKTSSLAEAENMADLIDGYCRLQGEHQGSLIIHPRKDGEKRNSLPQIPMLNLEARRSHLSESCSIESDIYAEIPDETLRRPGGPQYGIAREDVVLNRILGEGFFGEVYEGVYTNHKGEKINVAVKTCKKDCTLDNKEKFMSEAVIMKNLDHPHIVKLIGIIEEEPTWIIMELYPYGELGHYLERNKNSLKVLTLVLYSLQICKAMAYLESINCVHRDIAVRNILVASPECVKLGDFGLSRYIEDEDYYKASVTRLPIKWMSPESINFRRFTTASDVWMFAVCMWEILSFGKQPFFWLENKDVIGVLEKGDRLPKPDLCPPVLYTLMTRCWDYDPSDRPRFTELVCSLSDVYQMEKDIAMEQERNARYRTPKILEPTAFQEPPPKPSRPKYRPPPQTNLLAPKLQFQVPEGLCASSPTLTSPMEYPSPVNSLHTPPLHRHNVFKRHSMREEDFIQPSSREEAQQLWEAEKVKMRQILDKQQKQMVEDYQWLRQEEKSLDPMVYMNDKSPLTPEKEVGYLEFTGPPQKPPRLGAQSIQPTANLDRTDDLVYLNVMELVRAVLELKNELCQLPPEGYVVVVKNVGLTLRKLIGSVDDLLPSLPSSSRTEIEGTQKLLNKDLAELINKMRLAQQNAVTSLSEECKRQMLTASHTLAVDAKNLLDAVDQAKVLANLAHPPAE
T4 sequence (P08581 25-1390): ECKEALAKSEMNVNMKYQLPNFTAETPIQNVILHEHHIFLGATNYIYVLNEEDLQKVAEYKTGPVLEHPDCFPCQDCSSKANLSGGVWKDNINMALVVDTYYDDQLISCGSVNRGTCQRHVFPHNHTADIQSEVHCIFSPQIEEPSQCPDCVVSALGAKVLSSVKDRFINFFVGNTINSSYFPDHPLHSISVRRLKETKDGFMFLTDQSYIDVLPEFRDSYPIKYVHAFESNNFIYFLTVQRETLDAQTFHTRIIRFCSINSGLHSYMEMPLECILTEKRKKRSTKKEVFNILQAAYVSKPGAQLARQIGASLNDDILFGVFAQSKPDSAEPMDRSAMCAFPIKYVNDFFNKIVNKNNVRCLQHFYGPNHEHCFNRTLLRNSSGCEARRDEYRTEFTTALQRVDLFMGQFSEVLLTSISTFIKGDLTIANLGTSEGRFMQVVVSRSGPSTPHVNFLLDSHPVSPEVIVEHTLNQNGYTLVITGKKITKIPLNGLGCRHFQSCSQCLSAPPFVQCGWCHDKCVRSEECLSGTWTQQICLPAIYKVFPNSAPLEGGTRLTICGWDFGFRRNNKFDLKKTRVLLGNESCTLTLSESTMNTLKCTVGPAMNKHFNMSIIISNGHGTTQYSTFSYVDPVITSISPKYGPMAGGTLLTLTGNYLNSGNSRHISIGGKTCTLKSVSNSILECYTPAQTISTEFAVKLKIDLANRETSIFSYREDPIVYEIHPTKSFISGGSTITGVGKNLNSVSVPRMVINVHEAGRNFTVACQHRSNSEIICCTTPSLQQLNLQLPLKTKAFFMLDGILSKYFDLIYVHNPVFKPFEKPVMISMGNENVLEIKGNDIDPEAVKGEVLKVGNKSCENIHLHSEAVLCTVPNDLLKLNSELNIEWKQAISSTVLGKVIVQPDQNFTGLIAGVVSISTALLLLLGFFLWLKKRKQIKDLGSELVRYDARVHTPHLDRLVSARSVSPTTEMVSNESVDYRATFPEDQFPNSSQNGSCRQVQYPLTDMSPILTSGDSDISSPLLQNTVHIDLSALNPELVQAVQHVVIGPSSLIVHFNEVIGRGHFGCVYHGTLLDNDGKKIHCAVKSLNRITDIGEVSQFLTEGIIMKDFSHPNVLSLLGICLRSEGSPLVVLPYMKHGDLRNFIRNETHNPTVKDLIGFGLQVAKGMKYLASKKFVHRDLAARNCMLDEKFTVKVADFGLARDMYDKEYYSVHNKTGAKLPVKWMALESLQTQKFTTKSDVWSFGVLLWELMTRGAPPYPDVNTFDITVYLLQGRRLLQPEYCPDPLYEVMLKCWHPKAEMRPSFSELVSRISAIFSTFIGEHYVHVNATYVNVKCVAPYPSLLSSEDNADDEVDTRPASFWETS
T5 sequence (Q9UM73 19-1620): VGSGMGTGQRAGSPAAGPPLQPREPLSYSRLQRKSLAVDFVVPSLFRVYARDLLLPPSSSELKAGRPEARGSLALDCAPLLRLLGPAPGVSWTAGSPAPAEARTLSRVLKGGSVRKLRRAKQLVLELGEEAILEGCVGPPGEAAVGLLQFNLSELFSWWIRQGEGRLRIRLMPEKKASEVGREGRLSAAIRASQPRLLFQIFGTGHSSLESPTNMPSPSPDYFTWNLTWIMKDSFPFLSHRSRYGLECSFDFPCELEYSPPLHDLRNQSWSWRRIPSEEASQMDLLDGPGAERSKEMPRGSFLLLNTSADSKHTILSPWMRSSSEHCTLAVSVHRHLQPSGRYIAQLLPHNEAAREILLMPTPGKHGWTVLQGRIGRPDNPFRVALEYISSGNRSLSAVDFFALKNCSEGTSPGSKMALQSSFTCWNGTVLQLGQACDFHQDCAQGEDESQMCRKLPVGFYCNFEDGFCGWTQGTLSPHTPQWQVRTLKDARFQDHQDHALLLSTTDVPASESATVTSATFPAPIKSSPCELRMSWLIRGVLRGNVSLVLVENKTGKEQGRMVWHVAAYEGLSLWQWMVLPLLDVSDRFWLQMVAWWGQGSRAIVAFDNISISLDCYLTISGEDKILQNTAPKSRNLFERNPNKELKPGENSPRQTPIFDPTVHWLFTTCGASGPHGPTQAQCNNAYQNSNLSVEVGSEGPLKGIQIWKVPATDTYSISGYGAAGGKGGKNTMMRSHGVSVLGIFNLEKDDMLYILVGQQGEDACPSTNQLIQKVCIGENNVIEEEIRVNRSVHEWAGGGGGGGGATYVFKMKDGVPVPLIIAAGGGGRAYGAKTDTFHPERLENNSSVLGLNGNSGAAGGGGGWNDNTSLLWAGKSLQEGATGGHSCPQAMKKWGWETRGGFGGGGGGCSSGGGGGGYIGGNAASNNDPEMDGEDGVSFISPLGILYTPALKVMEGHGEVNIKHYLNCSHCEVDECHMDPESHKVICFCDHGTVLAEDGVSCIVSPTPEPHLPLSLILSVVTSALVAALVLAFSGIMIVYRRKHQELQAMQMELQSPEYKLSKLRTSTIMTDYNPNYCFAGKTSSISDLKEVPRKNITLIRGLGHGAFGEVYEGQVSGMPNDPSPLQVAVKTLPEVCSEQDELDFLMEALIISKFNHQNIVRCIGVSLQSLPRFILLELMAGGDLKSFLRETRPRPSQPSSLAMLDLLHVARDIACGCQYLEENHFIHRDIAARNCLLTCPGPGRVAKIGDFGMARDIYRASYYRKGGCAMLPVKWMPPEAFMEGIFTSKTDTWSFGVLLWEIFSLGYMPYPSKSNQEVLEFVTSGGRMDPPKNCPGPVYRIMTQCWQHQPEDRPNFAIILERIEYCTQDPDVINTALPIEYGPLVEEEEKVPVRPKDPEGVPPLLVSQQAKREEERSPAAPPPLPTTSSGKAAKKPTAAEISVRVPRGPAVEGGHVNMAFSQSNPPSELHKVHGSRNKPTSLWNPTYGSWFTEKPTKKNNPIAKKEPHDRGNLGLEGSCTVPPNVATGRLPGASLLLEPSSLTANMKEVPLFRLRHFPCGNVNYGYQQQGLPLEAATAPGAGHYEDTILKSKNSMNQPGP

For the compound `CNC(=O)c1cccc(C)c1Nc1nc(Nc2ccc(N3CCN([C@H]4C5CC6CC4C[C@](O)(C6)C5)CC3)cc2OC)ncc1C(F)(F)F` [Compound 4, 2-((2-((4-(4-((trans)-5-hydroxyadamantan-2-yl)piperazin-1-yl)-2-methoxyphenyl)amino)-5-(trifluoromethyl)pyrimidin-4-yl)amino)-N,3-dimethylbenzamide], the IC50 in the experiment with MDA-MB-453 was 1040 nM; in the experiment with Hs578T, above 10 µM; on InsR it was 5.67 µM; at FAK [1] it was 63 nM; on Pyk2 [2] (Pyk2, Eurofins), 301 nM; at FAK [3] it was 49 nM. The half-inhibitory concentration (IC50) came to 59 nM at FAK [4]; 20 nM on FAK [5]; 78 nM against FAK [6] (Eurofins); 151 nM against Pyk2 [7]; 542 nM against Met (Eurofins); 20 nM on FAK [9]. The IC50 against ALK (Eurofins) was 802 nM; at FAK [10], 46.2 nM; on FAK [12], 34 nM. The inhibition at 1 µM at Pyk2 [2] (Pyk2, at 1 μM, read-out: % inhibition rate (at 1 μM)) was found to be 96%; on FAK [6] (setting [13]), 97%; at Met (setting [13]), 79%; on ALK (setting [13]), 72%. Besides, the “% TGI” value turned out to be 72.11% with MDA-MB-231 cells [8] (20 mg/kg once daily), 74.03% in the experiment on MDA-MB-231 cells [8] (40 mg/kg once daily) and 81.28% with MDA-MB-231 cells [8] (80 mg/kg once daily). In the experiment on MDA-MB-231 cells [11], the invasion inhibitory activity result is on record as “excellent invasion inhibitory activity”.
